Assay results: US10800778B2 (Entasis Therapeutics Limited, priority 2016, dated 2020)
Structures can show the parent of a compound that is named as a salt.

How the values were obtained:
[1] = Stability in pH 7.4 buffer (no enzyme); assay type: physicochemical; conditions: read-out: T1/2 pH 7.4 Buffer
Description: (§1) The human intestinal S9 with the absence of PMSF, human liver S9, rat intestinal S9, and rat liver S9 preparations were obtained from Xenotech (Lenexa, Kans.). The 500-μL incubation solution contained 0.8 mg/mL of enzyme (or no enzyme for buffer stability), 10 μM of test compounds in 100 mM of HEPES buffer, pH 7.4. The hydrolysis reactions were conducted in a 1-mL glass insert (Analytical Sales, Pompton Plains, N.J.) in a shake water bath at 37° C. At 0, 2, 5, 10, 15, 30 and 60 min, the reaction was terminated by pipetting 50 μL incubate to a 96 DeepWell plate (Thermo Fisher Scientific, Rochester, N.Y.) containing 100 μL of acetonitrile with 250 ng/mL of Carbutamide (Sigma-Aldrich, St. Louis, Miss.) as the internal standard. The crashed solutions were then vortexed well followed by centrifuge at 4000 rpm for 15 min at 4° C. The extract was transferred to a new 96 DeepWell plate for LC-MS/MS analysis.
(§2) LC-MS/MS analysis was done using an AB Sciex QTrap 6500 mass spectrometer under positive ionization mode, coupled to a Schimadzu Nexera LC system.
(§3) A Waters Atlantis T3 (3 μm, 3.0×50 mm) column was used for separation. The mobile phase consisted 0.1% formic acid in water (A) and 0.1% formic acid in acetonitrile (B) with a flow rate set at 1.2 mL/min. For the prodrug analysis, the Multiple Reaction Monitoring (MRM) specific for each compound was set up so that both prodrug and its hydrolyzed active can be monitored simultaneously.
(§4) Half-lives listed are based on disappearance of starting ester.

[2] = Stability/conversion of esters in rat intestinal S9; assay type: in vitro ADME
Description: as §1, §2, §3, §4

[3] = Stability/conversion of esters in rat liver S9; assay type: in vitro ADME
Description: as §1, §2, §3, §4

[4] = Stability/conversion of esters in human intestinal S9; assay type: in vitro ADME
Description: as §1, §2, §3, §4

[5] = Stability/conversion of esters in human liver S9; assay type: in vitro ADME
Description: as §1, §2, §3, §4

[6] = target: TEM-1 (Class A beta-lactamase) (Escherichia coli, UniProt P62593); test: Inhibition of beta-lactamase enzymes (nitrocefin hydrolysis), TEM-1; assay type: biochemical; conditions: read-out: Class A TEM-1 60 min IC50, nitrocefin 100 μM
Description: (§5) A buffer consisting of 0.1 M sodium phosphate (pH 7.0), 10 mM NaHCO3, and 0.005% Triton X-100 was used for all enzymes. The chromogenic substrate nitrocefin (SynGene, Bangalore, India) was used at 100 μM. Enzyme activity was monitored by the 490 nm absorbance increase upon nitrocefin hydrolysis. Assays were performed in clear polystyrene 384-well plates (Greiner Bio-One, Monroe, N.C.). Absorbance was measured for 1 hour at 30-s intervals using a Spectramax absorbance plate reader (Molecular Devices, Sunnyvale, Calif.). Measurement of beta-lactamase inhibition by INHIBITOR employed serial 3-fold dilutions of the inhibitor in assay buffer, ranging from 100 μM to 62.7 pM. A background absorbance progress curve for a control lacking enzyme and inhibitor was subtracted from each progress curve.
(§6) The complete set of progress curves for one enzyme with all inhibitor concentrations was subjected to numerical integration with the program Kintek Global Kinetic Explorer (Kintek Corp, Snowshoe Pa.) to obtain a best-fit to the mechanism shown in Scheme 10.
(§7) where E, S, ES, P, I, and EI are the concentrations of the enzyme, nitrocefin, the enzyme-nitrocefin complex, the nitrocefin hydrolysis product, INHIBITOR, and the enzyme-INHIBITOR complex respectively. […] The values of k+2, k+3, and k−3 were fit. Concentration series offsets of the absorbance measurements were used to correct for slight absorbance baseline differences between wells. The parameter k+3 is equivalent to the second order rate constant kinact/Ki. In some cases, the inhibition was in rapid equilibrium on the experimental time scale, so that only the ratio k−3/k+3=Ki could be determined. Although k−3 represents reversal of inhibitor binding in Scheme 10, hydrolysis of the enzyme-inhibitor complex could not be excluded based on kinetic measurements.
(§8) Best-fit absorbance values from the above procedure at each time point for each compound concentration were exported to Excel.
(§9) where A is the best-fit absorbance without inhibitor and Ainhib is the best-fit absorbance in the presence of the inhibitor.
(§10) where [I] is the inhibitor concentration and n is the Hill coefficient. The Excel add-in XLfit (ID Business Solutions) was used for nonlinear regression.

[7] = target: OXA-48 (Class D beta-lactamase) (Klebsiella pneumoniae, UniProt Q6XEC0); test: Inhibition of beta-lactamase enzymes (nitrocefin hydrolysis), OXA-48; assay type: biochemical; conditions: read-out: Class D OXA-48 60 min IC50, nitrocefin 100 μM
Description: as §5, §6, §7, §8, §9, §10

[8] = s9, pH 7.4, read-out: T1/2 Rat Intestinal S9
[9] = s9, pH 7.4, read-out: T1/2 Rat Liver S9
[10] = s9, pH 7.4, read-out: T1/2 Human Intestinal S9
[11] = s9, pH 7.4, read-out: T1/2 Human Liver S9
[12] = intestinal S9, pH 7.4, read-out: T1/2 Rat Intestinal S9
[13] = liver S9, pH 7.4, read-out: T1/2 Rat Liver S9
[14] = intestinal S9 (without PMSF), pH 7.4, read-out: T1/2 Human Intestinal S9
[15] = liver S9, pH 7.4, read-out: T1/2 Human Liver S9

Sequence of TEM-1 (Class A beta-lactamase) (P62593 whole entry, looked up, species assumed): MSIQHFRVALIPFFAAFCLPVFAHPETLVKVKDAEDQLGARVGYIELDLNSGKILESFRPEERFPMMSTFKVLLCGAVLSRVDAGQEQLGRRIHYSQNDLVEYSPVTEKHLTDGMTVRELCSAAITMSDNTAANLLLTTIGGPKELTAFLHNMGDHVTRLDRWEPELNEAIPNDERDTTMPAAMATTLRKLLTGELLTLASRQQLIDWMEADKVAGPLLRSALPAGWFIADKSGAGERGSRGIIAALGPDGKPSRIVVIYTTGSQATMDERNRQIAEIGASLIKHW
Sequence of OXA-48 (Class D beta-lactamase) (Q6XEC0 whole entry, looked up, species assumed): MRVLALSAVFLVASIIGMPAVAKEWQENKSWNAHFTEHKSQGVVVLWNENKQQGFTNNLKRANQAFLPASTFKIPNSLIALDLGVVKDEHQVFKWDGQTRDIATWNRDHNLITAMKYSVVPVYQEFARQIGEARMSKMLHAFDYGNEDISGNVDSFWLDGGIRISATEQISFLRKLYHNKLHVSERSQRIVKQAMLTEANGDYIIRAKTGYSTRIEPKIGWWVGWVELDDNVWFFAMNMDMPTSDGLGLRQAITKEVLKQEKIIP

Work on CCOC(=O)[C@@H](F)ON1C(=O)N2C[C@H]1C=C(C)[C@H]2C(N)=O [Example 1, (R)-ethyl 2-((2S,5R)-2-carbamoyl-3-methyl-7-oxo-1,6-diazabicyclo[3.2.1]oct-3-en-6-yloxy)-2-fluoroacetate] yielded a half-life at 10 μM ([1]; buffer) of 41 min, a half-life at 10 μM [2, 8] of 39 min and a half-life at 10 μM [3, 9] of 4.4 min. The half-life at 10 μM [4, 10] was 38 min and the half-life at 10 μM [5, 11] was 6.5 min.

CCOC(=O)[C@H](F)ON1C(=O)N2C[C@H]1C=C(C)[C@H]2C(N)=O [Example 2, (S)-ethyl 2-((2S,5R)-2-carbamoyl-3-methyl-7-oxo-1,6-diazabicyclo[3.2.1]oct-3-en-6-yloxy)-2-fluoroacetate] showed a half-life at 10 μM ([1]; buffer) of 29 min, a half-life at 10 μM [2, 8] of 24 min and a half-life at 10 μM [3, 9] of 1.4 min. For the same compound, the half-life at 10 μM [4, 10] was 21 min and the half-life at 10 μM [5, 11] was 1.9 min.

With CCOC(=O)C(F)(F)ON1C(=O)N2C[C@H]1C=C(C)[C@H]2C(N)=O [Example 7, ethyl {[(2S,5R)-2-carbamoyl-3-methyl-7-oxo-1,6-diazabicyclo[3.2.1]oct-3-en-6-yl]oxy}(difluoro)acetate] the half-life at 10 μM ([1]; HEPES buffer without enzyme) was 3.9 min, the half-life at 10 μM [2, 12] was 3.9 min and the half-life at 10 μM [3, 13] was 0.5 min. For the same compound, the half-life at 10 μM [4, 14] was 2.4 min and the half-life at 10 μM [5, 15] was 0.8 min.

CCOC(=O)CON1C(=O)N2C[C@H]1C=C(C)[C@H]2C(N)=O [Example 9, ethyl {[(2S,5R)-2-carbamoyl-3-methyl-7-oxo-1,6-diazabicyclo[3.2.1]oct-3-en-6-yl]oxy}acetate] gave a half-life at 10 μM ([1]; HEPES buffer without enzyme) of 18.3 min, a half-life at 10 μM [2, 12] of 27.3 min and a half-life at 10 μM [3, 13] of 1.4 min. It also gave a half-life at 10 μM [4, 14] of 17.8 min and a half-life at 10 μM [5, 15] of 2.9 min.

For CC1=C[C@@H]2CN(C(=O)N2O[C@@H](F)C(=O)OC(C)C)[C@@H]1C(N)=O [Example 13, propan-2-yl (2S)-{[(2S,5R)-2-carbamoyl-3-methyl-7-oxo-1,6-diazabicyclo[3.2.1]oct-3-en-6-yl]oxy}(fluoro)ethanoate], the half-life at 10 μM ([1]; HEPES buffer without enzyme) was 55 min, the half-life at 10 μM [4, 14] was 44 min and the half-life at 10 μM [5, 15] was 1 min.

In the case of CC1=C[C@@H]2CN(C(=O)N2O[C@H](F)C(=O)OC(C(C)C)C(C)C)[C@@H]1C(N)=O [Example 15, 2,4-dimethylpentan-3-yl (2R)-{[(2S,5R)-2-carbamoyl-3-methyl-7-oxo-1,6-diazabicyclo[3.2.1]oct-3-en-6-yl]oxy}(fluoro)ethanoate], the half-life at 10 μM ([1]; HEPES buffer without enzyme) is reported as 98 min, the half-life at 10 μM [2, 12] is reported as > 100 min and the half-life at 10 μM [3, 13] is reported as 1.5 min. The half-life at 10 μM [4, 14] was > 100 min and the half-life at 10 μM [5, 15] was 12.4 min.

Compound COCCOC(=O)[C@@H](F)ON1C(=O)N2C[C@H]1C=C(C)[C@H]2C(N)=O [Example 18, 2-methoxyethyl (2R)-{[(2S,5R)-2-carbamoyl-3-methyl-7-oxo-1,6-diazabicyclo[3.2.1]oct-3-en-6-yl]oxy}(fluoro)ethanoate] has a half-life at 10 μM ([1]; HEPES buffer without enzyme) of 18 min, a half-life at 10 μM [2, 12] of 16 min and a half-life at 10 μM [3, 13] of 7 min. The half-life at 10 μM [4, 14] was 15 min and the half-life at 10 μM [5, 15] was 9.2 min.

For CCC(CC)OC(=O)[C@@H](F)ON1C(=O)N2C[C@H]1C=C(C)[C@H]2C(N)=O [Example 24, (R)-pentan-3-yl 2-((2S,5R)-2-carbamoyl-3-methyl-7-oxo-1,6-diazabicyclo[3.2.1]oct-3-en-6-yloxy)-2-fluoroacetate], the half-life at 10 μM ([1]; buffer) was > 100 min, the half-life at 10 μM [4, 10] was 34 min and the half-life at 10 μM [5, 11] was 9 min.

With CC1=C[C@@H]2CN(C(=O)N2O[C@@H](F)C(=O)O)[C@@H]1CN [Example 77, (2S)-2-[[(2S,5R)-2-(aminomethyl)-3-methyl-7-oxo-1,6-diazabicyclo[3.2.1]oct-3-en-6-yl]oxy]-2-fluoro-acetic acid] the IC50 [6] was > 100000 nM and the IC50 [7] was > 100000 nM.

CC(=O)NC[C@@H]1C(C)=C[C@@H]2CN1C(=O)N2O[C@@H](F)C(=O)O [Example 78, (2S)-2-[[(2S,5R)-2-(acetamidomethyl)-3-methyl-7-oxo-1,6-diazabicyclo[3.2.1]oct-3-en-6-yl]oxy]-2-fluoro-acetic acid lithium salt] showed an IC50 [6] of 3600 nM and an IC50 [7] of 690 nM.

Work on CC1=C[C@@H]2CN(C(=O)N2O[C@@H](F)C(=O)O)[C@@H]1CNC(=O)C(F)(F)F [Example 79, (2S)-2-fluoro-2-[[(2S,5R)-3-methyl-7-oxo-2-[[(2,2,2-trifluoroacetyl)-aminolmethyl]-1,6-diazabicyclo[3.2.1]oct-3-en-6-yl]oxy]acetic acid lithium salt] yielded an IC50 [6] of 4200 nM and an IC50 [7] of 5700 nM.

Work on CC1=C[C@@H]2CN(C(=O)N2O[C@@H](F)C(=O)O)[C@@H]1C(=O)NCC#N [Example 82, (2S)-2-fluoro-2-[[(2S,5R)-2-(cyanomethylcarbamoyl)-3-methyl-7-oxo-1,6-diazabicyclo[3.2.1]oct-3-en-6-yl]oxy]acetic acid lithium salt] yielded an IC50 [6] of 85 nM and an IC50 [7] of 28 nM.

With CC1=C[C@@H]2CN(C(=O)N2O[C@@H](F)C(=O)O)[C@@H]1C(=O)NCO [Example 87, (2S)-2-fluoro-2-[[(2S,5R)-2-(hydroxymethylcarbamoyl)-3-methyl-7-oxo-1,6-diazabicyclo[3.2.1]oct-3-en-6-yl]oxy]acetic acid lithium salt] the IC50 [6] was 150 nM and the IC50 [7] was 11 nM.

CC(=O)NCNC(=O)[C@@H]1C(C)=C[C@@H]2CN1C(=O)N2O[C@@H](F)C(=O)O [Example 88, (2S)-2-fluoro-2-[[(2S,5R)-2-(acetamidomethylcarbamoyl)-3-methyl-7-oxo-1,6-diazabicyclo[3.2.1]oct-3-en-6-yl]oxy]acetic acid lithium salt] gave an IC50 [6] of 54 nM and an IC50 [7] of 45 nM.

CC1=C[C@@H]2CN(C(=O)N2O[C@@H](F)C(=O)O)[C@@H]1C(=O)NCNS(N)(=O)=O [Example 89, lithium salt] gave an IC50 [6] of 33 nM and an IC50 [7] of 150 nM.

With CC1=C[C@@H](C(N)=O)N2C[C@@H]1N(OC(F)(F)C(=O)O)C2=O [Example 91, 2-(((2S,5R)-2-carbamoyl-4-methyl-7-oxo-1,6-diazabicyclo[3.2.1]oct-3-en-6-yl)oxy)-2,2-difluoroacetic acid lithium salt] the IC50 [6] was 0.47 nM and the IC50 [7] was 18 nM.

Compound CCOC(=O)[C@@H](F)ON1C(=O)N2C[C@H]1C(C)=C[C@H]2C#N [Example 94, ethyl (2R)-2-(((2S,5R)-2-cyano-4-methyl-7-oxo-1,6-diazabicyclo[3.2.1]oct-3-en-6-yl)oxy)-2-fluoroacetate] has a half-life at 10 μM ([1]; buffer) of 46.9 min, a half-life at 10 μM [2, 8] of 25.9 min and a half-life at 10 μM [3, 9] of 1.3 min. It also gave a half-life at 10 μM [4, 10] of 10.6 min.

With CC1=C[C@@H](C#N)N2C[C@@H]1N(O[C@H](F)C(=O)O)C2=O [Example 95, (2R)-2-(((2S,5R)-2-cyano-4-methyl-7-oxo-1,6-diazabicyclo[3.2.1]oct-3-en-6-yl)oxy)-2-fluoroacetic acid lithium salt] the IC50 [6] was 35 nM and the IC50 [7] was 1.3 nM.
